According to patent US11596608B2, “Formulation” (INDEX PHARMACEUTICALS AB, priority 2018, dated 2023):
Values belong to the compound of their own block, whether it stands above or below them. Oligonucleotides are written 5' to 3', each unit as a sugar letter and its base; * is a phosphorothioate linkage, no mark a phosphodiester; rarer units and linkages stand in square brackets, end groups in braces. Plain capitals give the bases only. d = 2'-deoxy (DNA)

Columns and labels:
[1] = Cobitolimod suspension limit in Capryol only; format: physicochemical; conditions: corresponding to 13-14% cobitolimod in Capryol PGMC
Description: The cobitolimod suspension limit in Capryol only was assessed by repeating the steps of (i) adding the API to Capryol, (ii) spatula stirring and (iii) sonication, until the suspension became unworkable due to, for example, being too viscous, agglomerates forming that would not break down etc.

[2] = Chemical stability assessment of core formulations (HPLC assay and related substances); format: physicochemical; conditions: reference raw material
Description: The bulk mixes were assessed physically and chemically initially and following four weeks of storage at 40° C./75% RH. For the physical assessments, samples were assessed visually for appearance changes, focusing on colour and physical behaviour.
The samples were run on an X Bridge BEH C18, 2.5 μm, 4.6 mm×50 mm column with a flow rate of 0.4 ml/min at 60° C., a run time of 60 minutes and a detection wavelength of 260 nm. The sample injection volume was […] with a sampler temperature of 5° C. The mobile phase compositions were as follows: • Mobile phase A 3% Acetonitrile in 0.2% TEA, 1% HFIP, • Mobile phase B 12% Acetonitrile in 0.2% TEA, 1% HFIP, • Mobile phase C Acetonitrile, • Mobile phase D water.

chronic active UC = conditions: cited from earlier work
[3] = observed during manufacture of Example 3 formulation
Description: The vials were then high shear mixed for a minimum of 2×2 minutes then allowed to settle, all had visible insoluble material, therefore the samples were then high shear mixed for a further 2 minutes and visually assessed before samples taken for pH analysis. pH analysis involved centrifuging the sample at 14000 RPM for 10 minutes to separate out the insoluble material and then diluting 1 g of the clear supernatant with 3 g of deionised water, mixing thoroughly and measuring the pH.

UC = conditions: versus placebo; cited from earlier work

Compound: 5′-G*G*A*ACAGTTCGTCCAT*G*G*C-3′ (DNA dG*dG*dA*dAdCdAdGdTdTdCdGdTdCdCdAdT*dG*dG*dC) [cobitolimod]
limit of suspendability expressed per capsule [1]: approx. 53 mg cobitolimod/capsule
impurity level [2]: 5.3 area %
safety and tolerability (chronic active UC; human, in vivo): safe and well tolerated
clinical efficacy (chronic active UC; patients with chronic active UC): effective to induce clinical response and remission

solubility of tromethamine in Capryol PGMC [3]: some insolubility
Compound: NC(CO)(CO)CO [tromethamine]

Compound: vedolizumab: α4β7 integrin inhibitor approved for the treatment of UC
inducing and maintaining clinical response, clinical remission, and mucosal healing (UC): more effective than placebo
